Assay results reported in patent publication US7977082B2, “Isomaltulose synthases, polynucleotides encoding them and uses therefor” (The University of Queensland of St. Lucia, priority 2001, dated 2011).
“And” between values parts separate entries of the source, which are not always exact repeats. Equal values may be shown once. Residues, ends and D or L forms follow the SMILES beside them.

B1: Klebsiella sp. 14S sucrose isomerase (SI), carboxy-terminal 6×His tag (SEQ ID NO: 52) (Klebsiella planticola) (protein)
chain: APSVNQNIHVHKESEYPAWWKEAVFYQIYPRSFKDTNDDGIGDIRGIIEKLDYLKSLGIDAIWINPHYDSPNTDNGYDISNYRQIMKEYGTMEDFDNLVAEMKKRNMRLMIDVVINHTSDQHPWFIQSKSDKNNPYRDYYFWRDGKDNQPPNNYPSFFGGSAWQKDAKSGQYYLHYFARQQPDLNWDNPKVREDLYAMLRFWLDKGVSSMRFDTVATYSKIPGFPNLTPEQQKNFAEQYTMGPNIHRYIQEMNRKVLSRYDVATAGEIFGVPLDRSSQFFDPRRHELNMAFMFDLIRLDRDSNERWRHKSWSLSQFRQIISKMDVTVGKYGWNTFFLDNHDNPRAVSHFGDDRPQWREASAKALATITLTQRATPFIYQGSELGMTNYPFRQLNEFDDIEVKGFWQDYVQSGKVTATEFLDNVRLTSRDNSRTPFQWNDTLNAGFTRGKPWFHINPNYVEINAEREETREDSVLNYYKKMIQLRHHIPALVYGAYQDLNPQDNTVYAYTRTLGNERYLVVVNFKEYPVRYTLPANDAIEEVVIDTQQQATAPHSTSLSLSPWQAGVYKLR
B2: Pantoea dispersa 68J sucrose isomerase (SI), mature, SEQ ID NO: 10, carboxy-terminal 6×His tag (SEQ ID NO: 52) (Pantoea dispersa) (protein)
chain: ATNIQKSADFPIWWKQAVFYQIYPRSFKDSNGDGIGDIPGIIEKLDYLKMLGVDAIWINPHYESPNTDNGYDISDYRKIMKEYGSMADFDRLVAEMNKRGMRLMIDIVINHTSDRHRWFVQSRSGKDNPYRDYYFWRDGKQGQAPNNYPSFFGGSAWQLDKQTDQYYLHYFAPQQPDLNWDNPKVRAELYDILRFWLDKGVSGLRFDTVATFSKIPGFPDLSKAQLKNFAEAYTEGPNIHKYIHEMNRQVLSKYNVATAGEIFGVPVSAMPDYFDRRREELNIAFTFDLIRLDRYPDQRWRRKPWTLSQFRQVISQTDRAAGEFGWNAFFLDNHDNPRQVSHFGDDSPQWRERSAKALATLLLTQRATPFIFQGAELGMTNYPFKNIEEFDDIEVKGFWNDYVASGKVNAAEFLQEVRMTSRDNSRTPMQWNDSVNAGFTQGKPWFHLNPNYKQINAAREVNKPDSVFSYYRQLINLRHQIPALTSGEYRDLDPQNNQVYAYTRILDNEKYLVVVNFKPEQLHYALPDNLTIASSLLENVHQPSLQENASTLTLAPWQAGIYKLN

Tested on: P. rubrum sucrose isomerase (SI)
Experiment: not given
Settings: Nagai et al., 1994; Véronèse and Perlot, 1998; cited from earlier work

Molecule	Inhibition of activity
OC[C@H]1OC(O)(CO)[C@@H](O)[C@@H]1O (stereo partly drawn) [fructose]	not

Tested on: P. mesoacidophila sucrose isomerase (SI)
Experiment: not given
Settings: Nagai et al., 1994; Véronèse and Perlot, 1998; cited from earlier work

Molecule	Inhibition of activity
OC[C@H]1OC(O)(CO)[C@@H](O)[C@@H]1O (stereo partly drawn) [fructose]	not

Tested on: K. plymuthica sucrose isomerase (SI)
Experiment: not given
Settings: Nagai et al., 1994; Véronèse and Perlot, 1998; cited from earlier work

Molecule	Inhibition of activity
OC[C@H]1OC(O)(CO)[C@@H](O)[C@@H]1O (stereo partly drawn) [fructose]	not

Tested on: E. rhapontici sucrose isomerase (SI)
Experiment: not given
Settings: Nagai et al., 1994; Véronèse and Perlot, 1998; cited from earlier work

Molecule	Inhibition of activity
OC[C@H]1OC(O)(CO)[C@@H](O)[C@@H]1O (stereo partly drawn) [fructose]	not

Tested on: P. dispersa 68J
Experiment: Growth in BP medium with different sugars
Type: cell-based
Settings: 2% sugar added to BP medium, 18 h incubation at 30°C
Method: Isomaltulose production was tested using cells grown in LB and in a basal peptone medium (BP, comprising 1% BBL gelysate peptone and 0.5% NaCl, adjusted to pH 7.0 prior to autoclaving). Glucose, fructose, sucrose, lactose, maltose or isomaltulose was added to the cooled media, from a filter-sterilised stock. The media containing 4% (w/v) sucrose are referred to as SLB and SBP respectively.
Inoculum of 100 μL from a culture grown for 12 h in LB medium was added to 25 mL growth medium in a 250 mL flask. After 18 h at 30° C. on a shaker at 225 rpm, OD600 was used to measure growth. Cultures were diluted with growth medium to OD600=1.50 (approximately half the cell density of a saturated culture in SLB). Aliquots of 1 mL were harvested by centrifugation at 5000×g for 10 min and washed three times with 0.1 M citrate/phosphate buffer (pH 6.0). The cell pellets were resuspended in 0.4 mL of 0.1 M citrate/phosphate buffer (pH 6.0) containing 50% sucrose (w/v). Culture supernatant was filtered through a 0.2 μm filter (Pall Acrodisc), and 0.1 mL was mixed with 0.4 mL of 0.1 M citrate/phosphate buffer (pH 6.0) containing 50% sucrose (w/v), for parallel testing of culture filtrate and harvested cells in the SI assay.

Molecule	effect on growth of P. dispersa 68J
OC[C@H]1O[C@H](O[C@H]2[C@H](O)[C@@H](O)[C@H](O)O[C@@H]2CO)[C@H](O)[C@@H](O)[C@@H]1O [Maltose]	little effect
OC[C@H]1O[C@@](CO)(O[C@H]2O[C@H](CO)[C@@H](O)[C@H](O)[C@H]2O)[C@@H](O)[C@@H]1O [Sucrose]	supported faster growth
OC[C@H]1O[C@@H](O[C@H]2[C@H](O)[C@@H](O)C(O)O[C@@H]2CO)[C@H](O)[C@@H](O)[C@H]1O (stereo partly drawn) [lactose]	little effect

Substrate: OC[C@H]1O[C@@](CO)(O[C@H]2O[C@H](CO)[C@@H](O)[C@H](O)[C@H]2O)[C@@H](O)[C@@H]1O
Experiment: Sucrose isomerase kinetics, purified SI from Klebsiella sp. 14S (isomaltulose production), with or without glucose/fructose
Type: biochemical
Settings: other: sucrose, pH 6.0, 30° C., Lineweaver and Burk
Method: (§1) The pET24b vector introduces a carboxy-terminal 6×His tag (SEQ ID NO: 52) on expressed proteins, which were purified by adsorption to Ni-NTA agarose (Qiagen) and elution with 25 mM NaH2PO4, 150 mM NaCl, 125 mM imidazole buffer (pH8.0) following the manufacturer's instructions. For storage, the eluted solution was diluted with 50% glycerol. The purity of SI proteins was tested by SDS-PAGE as described below. A batch procedure using Ni-NTA agarose in suspension yielded predominantly (80-95%) SI with a background of several other protein bands. A procedure using Ni-NTA agarose in adsorption columns yielded preparations containing a single protein band. […]
(§2) Enzyme activities were measured by incubating 5 μl of purified enzyme with 95 μL of sucrose solution at a final concentration of 584 mM in 0.1 M citrate/phosphate buffer (pH 6.0) at 30° C. Sugar profiles in the reaction mix were analysed at intervals by CE as described previously. […]
(§3) SI activity was measured by incubating the purified enzyme with different sucrose concentrations (3, 6, 15, 58, 146, 292, 584, 877, 1169 and 1461 mM) under standard assay conditions, and also with addition of glucose, fructose or both to a final concentration of 277 mM. Data were analyzed according to the method of Lineweaver and Burk (Voet and Voet, 1995) to calculate Km and Vmax values.

Molecule	Km [mM]	Vmax [U mg^−1]
B1	81.6	99.8

Tested on: strain 68J
Experiment: Growth of strain 68J with different carbon sources (BIOLOG GN)
Type: cell-based, Pantoea dispersa
Design: scale not given here
Settings: relative values; 96-well plates (BIOLOG GN)
Method: The morphological, cultural and biochemical features of strain 68J were determined in tests using E. coli (Top 10), K. oxytoca (JMP4505), E. rhapontici (WAC2928) as positive/negative controls. Gram stain, fermentation, catalase activity, pigment observation, and Simon's citrate tests were conducted according to Singleton (1999, Bacteria in Biology, Biotechnology and Medicine (5th edition). Wiley, New York). Oxidase activity by Kovac's reagent, indole production by Ehrlich's indole test, methyl red response, Voges-Proskauer reaction in Clark and Lub's medium, urea hydrolysis in Christensen's urea, lysine decarboxylase, ornithine decarboxylase and gelatin liquefaction were tested as described by MacFaddin (1979, Biochemical Tests for Identification of Medical Bacteria. Williams & Wilkins, Baltimore). Morphology, capsules and motility were observed microscopically. Carbon source utilization was tested in 96-well plates (BIOLOG GN).

Molecule	Growth
2,3-butynediol	1
C[N+](C)(C)CC(O)CC(=O)[O-] (racemic) [D,L-carnitine]	−10
CC(O)C(=O)O (racemic) [D,L-lactic acid]	365
O=P(O)(O)OCC(O)CO (racemic) [D,L-α-glycerol phosphate]	−8
NCCO [2-amino ethanol]	−4
OC[C@@H](O)C(O)[C@H](O)CO [D-arabitol]	−11
O=C1O[C@@H]([C@H](O)CO)[C@H](O)[C@H]1O [D-galactonic acid lactone]	−7
O=C(O)[C@H]1OC(O)[C@H](O)[C@@H](O)[C@@H]1O (stereo partly drawn) [D-glucoronic acid]	6
N[C@@H](C(=O)O)[C@@H](O)[C@H](O)[C@H](O)CO [D-glucosaminic acid]	1
OC[C@H]1O[C@H](OCC2O[C@@H](O)[C@H](O)[C@@H](O)[C@@H]2O)[C@H](O)[C@@H](O)[C@H]1O (stereo partly drawn) [D-melibiose]	6
OC[C@H]1O[C@H](OC[C@H]2O[C@H](O[C@]3(CO)O[C@H](CO)[C@@H](O)[C@@H]3O)[C@H](O)[C@@H](O)[C@@H]2O)[C@H](O)[C@@H](O)[C@H]1O [D-raffinose]	330
OC[C@H]1O[C@H](O[C@H]2O[C@H](CO)[C@@H](O)[C@H](O)[C@H]2O)[C@H](O)[C@@H](O)[C@@H]1O [D-trehalose]	619
O=P(O)(O)O[C@H]1O[C@H](CO)[C@@H](O)[C@H](O)[C@H]1O [Glucose-1-phosphate]	356
NCC(=O)N[C@@H](CC(=O)O)C(=O)O [Glycyl-L-aspatic acid] (H-Gly-Asp-OH)	−8
C[C@@H](O)[C@H](N)C(=O)O [L-theronine]	−12
O=C(CO)[C@@H](O[C@H]1O[C@H](CO)[C@@H](O)[C@H](O)[C@H]1O)[C@H](O)[C@H](O)CO [Turanose]	23
OC[C@H]1O[C@@H]2O[C@H]3[C@H](O)[C@@H](O)[C@@H](O[C@H]4[C@H](O)[C@@H](O)[C@@H](O[C@H]5[C@H](O)[C@@H](O)[C@@H](O[C@H]6[C@H](O)[C@@H](O)[C@@H](O[C@H]7[C@H](O)[C@@H](O)[C@@H](O[C@H]1[C@H](O)[C@H]2O)O[C@@H]7CO)O[C@@H]6CO)O[C@@H]5CO)O[C@@H]4CO)O[C@@H]3CO [a-cyclodextrin]	9
O=C(O)/C=C(/CC(=O)O)C(=O)O [cis-aconitic acid]	122
OC[C@@H](O)[C@@H](O)CO [i-erythritol]	0
O[C@H]1[C@H](O)[C@@H](O)[C@H](O)[C@@H](O)[C@H]1O [m-inositol]	611
O=C(O)CCC(=O)C(=O)O [α-keto glutanic acid]	91
CO[C@@H]1O[C@H](CO)[C@@H](O)[C@H](O)[C@H]1O [β-methyl D-glucosidase]	684
O=C(O)Cc1ccc(O)cc1 [ρ-hydroxy phenylacetic acid]	5
Tween40	25
α-D-lactose lactulose	12

Substrate: OC[C@H]1O[C@@](CO)(O[C@H]2O[C@H](CO)[C@@H](O)[C@H](O)[C@H]2O)[C@@H](O)[C@@H]1O
Experiment: Sucrose isomerase kinetics, purified SI from P. dispersa 68J (isomaltulose production), with or without glucose/fructose
Type: biochemical, Pantoea dispersa 68J
Settings: other: sucrose, pH 6.0, 30° C., Lineweaver and Burk
Method: as §1, §2, §3

Molecule	Km	Vmax [U mg^−1]
B2	46.6 mM and 47 mM	636.9
